Experimental data taken from patent publication US10745377B2, “Piperidine or piperazine linked imidazole and triazole derivatives and methods of use” (MERCK SHARP & DOHME CORP., priority 2013, dated 2020).

Tests used:
Format in all cases: biochemical
[1] = target: T1, CYP3A4 (Homo sapiens, UniProt P08684); test: Cocktail assay for CYPs in human liver microsomes: CYP3A4 (midazolam 1′-hydroxylation); details: human liver microsomes 0.1 mg/mL, 2 μM midazolam, 10 min at 37° C., 6 concentrations up to 10 μM; read-out: IC50 (nM) CYP3A4
T1 construct: 0.1 mg/mL protein human liver microsomes (BD Gentest); tissue BD Gentest; host or cells: human liver microsomes
Description: (§1) Determination of IC50 in a Cocktail Assay for CYPs 1A2, 2C9, 2C19, 2D6 and 3A4
(§2) This assay was performed in a standard 96-well plate design. […] The incubation substrate mix contains 10 μM phenacetin (1A2), 5 μM diclofenac (2C9), 30 μM mephenytoin (2C19), 5 μM dextromethorphan (2D6) and 2 μM midazolam (3A4), 0.1 mg/mL protein human liver microsomes (BD Gentest), 1 mM NAPDH, 3.3 mM MgCl2 and 100 mM potassium phosphate buffer (pH 7.4). The production of the metabolite of each probe substrate was determined after incubation for 10 min at 37° C. Quantitation of the metabolite peak area ratio against an internal standard (tolbutamide) was determined by LC/MS/MS analysis following acetonitrile treatment of the incubations.
(§3) Samples were analyzed in the MRM mode with a SCIEX API-4000 mass spectrometer (Applied Biosystems, Foster City, Calif.), with a Shimadzu LC-20 AD pump (Shimadzu corporation, Kyoto, JP) and a CTC PAL autosampler (Agilent Technologies, Switzerland). A Phenomenex, Luna, 5 μm, 100 A, 2.00×30 mm HPLC column was used for the separation. The mobile phases were: (A) 0.1% formic acid in water and (B) 0.1% formic acid in acetonitrile. The binary gradient was as follows.
(§4) The mass spectrum parameters were as follows:
(§5) The LC/MS/MS parameters for the analytes were as follows.
(§6) The peak area ratio of the analyte to the internal standard was used to quantify the metabolite. The values of peak area ratios in the presence of test compound were compared to those of maximum or minimum controls and were expressed as % inhibition by interpolating between the maximum and minimum peak area ratios. Incubations with no inhibitor were defined as the maxima.
(§7) The following equation was used to calculate the % inhibition: [1−[(X−Low control)/(High control−Low control)]]*100
(§8) For the IC50 calculation, SigmaPlot was used to plot the mean % inhibition versus the test compound concentrations and for non-linear regression analysis of the data. Depending on the range of data points defining the inhibition curve, the data may have been fit to the 4-parameter logistic equation.

[2] = target: T2, CYP1A2 (Homo sapiens, UniProt P05177); test: Cocktail assay for CYPs in human liver microsomes: CYP1A2 (phenacetin O-deethylation); details: human liver microsomes 0.1 mg/mL, 10 μM phenacetin, 10 min at 37° C., 6 concentrations up to 10 μM; read-out: IC50 (nM) CYP1A2
T2 construct: 0.1 mg/mL protein human liver microsomes (BD Gentest); tissue BD Gentest; host or cells: human liver microsomes
T2 sequence (P05177 1-516): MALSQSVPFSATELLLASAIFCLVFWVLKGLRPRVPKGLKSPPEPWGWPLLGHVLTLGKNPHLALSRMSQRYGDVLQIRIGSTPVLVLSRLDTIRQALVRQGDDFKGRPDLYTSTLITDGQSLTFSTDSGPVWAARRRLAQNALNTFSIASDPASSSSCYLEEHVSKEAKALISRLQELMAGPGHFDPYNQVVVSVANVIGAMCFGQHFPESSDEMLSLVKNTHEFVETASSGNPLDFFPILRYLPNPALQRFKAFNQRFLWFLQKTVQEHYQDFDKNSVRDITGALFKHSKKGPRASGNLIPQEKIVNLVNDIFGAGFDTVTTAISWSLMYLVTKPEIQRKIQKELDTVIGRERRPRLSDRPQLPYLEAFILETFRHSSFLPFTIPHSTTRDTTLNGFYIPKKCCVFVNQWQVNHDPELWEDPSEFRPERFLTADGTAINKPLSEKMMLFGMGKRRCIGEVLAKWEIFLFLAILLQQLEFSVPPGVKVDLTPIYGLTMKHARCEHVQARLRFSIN

[3] = target: T3, CYP2C9 (Homo sapiens, UniProt P11712); test: Cocktail assay for CYPs in human liver microsomes: CYP2C9 (diclofenac 4′-hydroxylation); details: human liver microsomes 0.1 mg/mL, 5 μM diclofenac, 10 min at 37° C., 6 concentrations up to 10 μM; read-out: IC50 (nM) CYP2C9
T3 construct: 0.1 mg/mL protein human liver microsomes (BD Gentest); tissue BD Gentest; host or cells: human liver microsomes

[4] = target: T4, CYP2C19 (Homo sapiens, UniProt P33261); test: Cocktail assay for CYPs in human liver microsomes: CYP2C19 (mephenytoin 4′-hydroxylation); details: human liver microsomes 0.1 mg/mL, 30 μM mephenytoin, 10 min at 37° C., 6 concentrations up to 10 μM; read-out: IC50 (nM) CYP2C19
T4 construct: 0.1 mg/mL protein human liver microsomes (BD Gentest); tissue BD Gentest; host or cells: human liver microsomes
Description: as §1, §2, §3, §4, §5, §6, §7, §8

[5] = target: T5, CYP2D6 (Homo sapiens, UniProt P10635); test: Cocktail assay for CYPs in human liver microsomes: CYP2D6 (dextromethorphan O-demethylation); details: human liver microsomes 0.1 mg/mL, 5 μM dextromethorphan, 10 min at 37° C., 6 concentrations up to 10 μM; read-out: IC50 (nM) CYP2D6
T5 construct: 0.1 mg/mL protein human liver microsomes (BD Gentest); tissue BD Gentest; host or cells: human liver microsomes
T5 sequence (P10635 whole entry): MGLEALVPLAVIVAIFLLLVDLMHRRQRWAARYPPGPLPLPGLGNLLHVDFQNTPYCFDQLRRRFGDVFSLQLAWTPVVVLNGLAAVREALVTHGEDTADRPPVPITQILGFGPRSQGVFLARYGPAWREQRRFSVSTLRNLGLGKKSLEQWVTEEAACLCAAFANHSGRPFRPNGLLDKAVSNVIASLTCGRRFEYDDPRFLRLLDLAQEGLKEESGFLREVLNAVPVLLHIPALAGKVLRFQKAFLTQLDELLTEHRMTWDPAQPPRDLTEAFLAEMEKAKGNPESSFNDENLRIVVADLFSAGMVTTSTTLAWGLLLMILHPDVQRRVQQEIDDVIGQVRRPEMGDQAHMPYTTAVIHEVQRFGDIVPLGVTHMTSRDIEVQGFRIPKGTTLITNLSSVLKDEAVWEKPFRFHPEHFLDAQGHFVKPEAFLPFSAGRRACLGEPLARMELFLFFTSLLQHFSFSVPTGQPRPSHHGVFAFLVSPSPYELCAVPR

T1 sequence (P08684 whole entry): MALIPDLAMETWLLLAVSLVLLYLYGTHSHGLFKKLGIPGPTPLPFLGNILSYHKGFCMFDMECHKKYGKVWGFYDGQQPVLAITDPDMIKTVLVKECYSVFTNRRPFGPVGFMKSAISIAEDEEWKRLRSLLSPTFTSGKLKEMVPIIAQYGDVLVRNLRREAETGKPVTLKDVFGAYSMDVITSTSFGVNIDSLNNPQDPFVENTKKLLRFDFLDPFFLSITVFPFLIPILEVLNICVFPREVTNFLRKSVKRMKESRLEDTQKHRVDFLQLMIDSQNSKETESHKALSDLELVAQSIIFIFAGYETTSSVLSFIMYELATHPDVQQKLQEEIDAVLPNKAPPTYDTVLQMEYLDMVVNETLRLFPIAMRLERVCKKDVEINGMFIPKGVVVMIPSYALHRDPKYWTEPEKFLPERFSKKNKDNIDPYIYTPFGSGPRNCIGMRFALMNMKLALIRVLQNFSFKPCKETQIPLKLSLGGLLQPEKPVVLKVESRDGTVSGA
T4 sequence (P33261 whole entry): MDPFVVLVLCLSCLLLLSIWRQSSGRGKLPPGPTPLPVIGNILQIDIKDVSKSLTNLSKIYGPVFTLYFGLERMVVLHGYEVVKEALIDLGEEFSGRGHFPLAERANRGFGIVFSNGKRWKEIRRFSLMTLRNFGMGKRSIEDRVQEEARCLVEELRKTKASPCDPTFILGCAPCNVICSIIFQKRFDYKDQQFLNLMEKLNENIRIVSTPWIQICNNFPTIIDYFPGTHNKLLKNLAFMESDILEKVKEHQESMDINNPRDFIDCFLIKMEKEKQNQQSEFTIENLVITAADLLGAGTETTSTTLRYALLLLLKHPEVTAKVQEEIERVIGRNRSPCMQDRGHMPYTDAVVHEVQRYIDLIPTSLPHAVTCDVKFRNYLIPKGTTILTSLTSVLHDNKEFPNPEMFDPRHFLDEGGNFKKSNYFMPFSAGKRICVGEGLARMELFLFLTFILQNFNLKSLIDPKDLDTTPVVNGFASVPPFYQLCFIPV
T3 sequence (P11712 whole entry): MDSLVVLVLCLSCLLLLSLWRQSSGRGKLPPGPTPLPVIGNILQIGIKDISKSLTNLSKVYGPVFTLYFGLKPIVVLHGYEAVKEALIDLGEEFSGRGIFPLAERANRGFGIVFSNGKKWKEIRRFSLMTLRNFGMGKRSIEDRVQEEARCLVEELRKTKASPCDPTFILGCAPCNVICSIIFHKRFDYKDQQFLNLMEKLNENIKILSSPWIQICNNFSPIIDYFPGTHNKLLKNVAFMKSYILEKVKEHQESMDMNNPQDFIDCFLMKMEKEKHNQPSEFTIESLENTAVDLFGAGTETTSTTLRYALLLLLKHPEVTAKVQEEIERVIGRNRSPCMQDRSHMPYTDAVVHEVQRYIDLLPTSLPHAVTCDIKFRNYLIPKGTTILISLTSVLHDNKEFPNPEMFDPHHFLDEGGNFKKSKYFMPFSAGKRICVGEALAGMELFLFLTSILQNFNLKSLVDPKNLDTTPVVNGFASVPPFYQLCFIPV

C[C@H](c1ccc(F)cc1)n1cncc1CN1CCN(Cc2cnc(N3CCN(C)CC3)s2)C(=O)C1 [Compound 69, (R)-4-((1-(1-(4-fluorophenyl)ethyl)-1H-imidazol-5-yl)methyl)-1-((2-(4-methylpiperazin-1-yl)thiazol-5-yl)methyl) piperazin-2-one] was tested, and the IC50 [1] was 56 nM, the IC50 [2] was greater than 10000 nM and the IC50 [3] was greater than 10000 nM. The IC50 [4] was greater than 10000 nM and the IC50 [5] was greater than 10000 nM.
With CCOC(=O)CN1CCN(Cc2cncn2C(C)c2ccccc2-c2ccc(F)cc2)CC1 (centres unmarked) [Compound 70, ethyl 2-(4-((1-(1-(4′-fluoro-[1,1′-biphenyl]-2-yl)ethyl)-1H-imidazol-5-yl)methyl)piperazin-1-yl)acetate] the IC50 [1] was 15 nM, the IC50 [2] was greater than 10000 nM and the IC50 [3] was greater than 10000 nM. For the same compound, the IC50 [4] was 5950 nM and the IC50 [5] was 7680 nM.
For CC(c1ccccc1-c1ccc(F)cc1)n1cncc1CN1CCN(CCO)CC1 (centres unmarked) [Compound 71, 2-(4-((1-(1-(4′-fluoro-[1,1′-biphenyl]-2-yl)ethyl)-1H-imidazol-5-yl)methyl)piperazin-1-yl) ethanol], the IC50 [1] was 37 nM, the IC50 [2] was greater than 10000 nM and the IC50 [3] was greater than 10000 nM. The IC50 [4] was greater than 10000 nM and the IC50 [5] was greater than 10000 nM.
For COCCN1CCN(Cc2cncn2C(C)c2ccccc2-c2ccc(F)cc2)CC1 (centres unmarked) [Compound 72, 1-((1-(1-(4′-fluoro-[1,1′-biphenyl]-2-yl)ethyl)-1H-imidazol-5-yl)methyl)-4-(2-methoxyethyl) piperazine], the IC50 [1] was 14 nM, the IC50 [2] was greater than 10000 nM and the IC50 [3] was greater than 10000 nM. The IC50 [4] was greater than 10000 nM and the IC50 [5] was 1170 nM.
